{"source": "patent US20110065663A1", "about": "“ANTI-CANCER COMBINATION THERAPY” (Katholieke Universiteit Leuven, K.U. Leuven R&D, priority 2008, published 2011)", "format_in_all_cases": "cell-based, human", "key": {"MCF-7/HYOR cells [1]": {"system": "MCF-7/HYOR cells", "experiment": "Tumor cell proliferation assay, M. hyorhinis-infected MCF-7 cells", "settings": "for IC50: Homo sapiens, MCF7, M. hyorhinis-infected MCF-7", "description": "Mycoplasma hyorhinis (ATCC 17981) was obtained from the American Type Culture Collection (ATCC, Manassas, Va.). The freeze-dried bacteria were reconstituted by adding 1 ml of DMEM. […] The co-culture of MCF-7 cells and M. hyorhinis was maintained under the same conditions as the uninfected MCF-7 cells. […] The cells were incubated for another 4 days, trypsinized and counted by a Coulter counter (Analis, Suarlée, Belgium)."}, "MCF-7/HYOR cell cultures": {"system": "MCF-7/HYOR cell cultures", "experiment": "Nucleoside metabolism experiments, distribution of drug-derived radiolabel in MCF-7/HYOR cell cultures", "settings": "24 h; 1 μCi; FIG. 5", "description": "Next, the cells were trypsinized, transferred to Eppendorf tubes and centrifuged for 10 minutes at 1,400 rpm. The pellet was resuspended in 1 ml absolute ice-cold methanol and kept on ice for 20 minutes. After centrifugation for 20 minutes at 13,000 rpm the pellet was washed twice with methanol, resuspended in methanol and transferred to scintillation vials containing 9 ml of Ready safe liquid scintillation reagent (‘Hisafe 3’, Perkin Elmer, Waltham, Mass.). The radioactivity was measured by a Liquid scintillation analyzer (2300 TR, Packard, Canberra, Australia). […] Next, the cells were incubated in 0.5 ml absolute ice-cold methanol and kept on ice for 20 minutes. After centrifugation for 20 minutes at 13,000 rpm, the supernatant was subjected to HPLC analysis. […] The amount of compound incorporated into nucleic acids was measured as described above."}, "MCF-7 cells [2]": {"system": "MCF-7 cells", "experiment": "Tumor cell proliferation assay, uninfected MCF-7 cells", "settings": "for IC50: Homo sapiens, uninfected MCF-7", "description": "MCF-7 and MCF-7/HYOR cells were seeded in 48-well plates at 10,000 cells/cm^2. […] of the test compounds (5FU, 5′DFUR, CIdUrd, BrdUrd, IdUrd and TFT) with or without 10 μM TPi were added. The cells were incubated for another 4 days, trypsinized and counted by a Coulter counter (Analis, Suarlée, Belgium). In some experiments, the antibiotic plasmocin was added one or three days before addition of the test compounds."}, "MCF-7/HYOR cells [3]": {"system": "MCF-7/HYOR cells", "experiment": "Flow cytometry, cell cycle arrest in MCF-7/HYOR cells"}, "MDA-MB-231 cells": {"system": "MDA-MB-231 cells", "experiment": "Cytostatic activity in M. hyorhinis-infected MDA-MB-231 breast carcinoma cells"}, "MCF-7 cells [4]": {"system": "MCF-7 cells", "experiment": "Gemcitabine metabolite distribution in MCF-7 cells (HPLC)", "settings": "24 h; 1 μCi; FIG. 5", "description": "MCF-7 and MCF-7/HYOR cells were seeded and treated with 1 μCi of nucleoside with and without TPi as described above. […] Next, the cells were incubated in 0.5 ml absolute ice-cold methanol and kept on ice for 20 minutes. After centrifugation for 20 minutes at 13,000 rpm, the supernatant was subjected to HPLC analysis. The nucleobases, nucleosides and nucleotides in the supernatant were separated by a Partisphere 10 SAX anion exchange column (Whatmann International Ltd., Maidstone, England) as described earlier (Balzarini J. et al., AIDS 2002; 16:2159-63), while the nucleobases and nucleosides present in the collected medium were separated using an RP-8 column. The amount of compound incorporated into nucleic acids was measured as described above."}, "MCF-7 cells [5]": {"system": "MCF-7 cells", "experiment": "Flow cytometry, cell cycle arrest in MCF-7 cells"}, "OST.TK^− cells": {"system": "OST.TK^− cells", "experiment": "Cytostatic activity in M. hyorhinis-infected osteosarcoma cells"}, "[6]": {"settings": "IC50 in the absence of TPi to IC50 in the presence of TPi"}}, "note": "Several values for one entry are separate records, joined by “and”; a condition that tells them apart may be missing. Equal entries are not always repeated. Where two headings read alike, the source gives them in different places."}
{"smiles": "Nc1ccn([C@@H]2O[C@H](CO)[C@@H](O)C2(F)F)c(=O)n1", "note": "[gemcitabine, 2′,2′-difluorodeoxycytidine]", "values": [{"measurement": "IC50", "setting": "MCF-7/HYOR cells [1]; no TPi, no plasmocin, read-out: IC50 MCF-7/HYOR As such", "value": "80 ± 28", "unit": "nM"}, {"measurement": "IC50", "setting": "MCF-7/HYOR cells [1]; with 10 μM TPi, read-out: IC50 MCF-7/HYOR +TPi (10 μM)", "value": "5.8 ± 1.2", "unit": "nM"}, {"measurement": "Ratio (1)/(2) MCF-7/HYOR", "setting": "MCF-7/HYOR cells [1]; [6]", "value": 14}, {"measurement": "Reduction of cytostatic activity in infected MCF-7/HYOR compared to control MCF-7 cells", "setting": "MCF-7/HYOR cells [1]; M. hyorhinis infection", "value": "10 fold and 14 fold"}, {"measurement": "Anti-proliferative activity in MCF-7/HYOR after three days pre-incubation with doxycycline", "setting": "MCF-7/HYOR cells [1]; doxycycline, 3 days", "value": "restores"}, {"measurement": "Anti-proliferative activity in MCF-7/HYOR after three days pre-incubation with plasmocin", "setting": "MCF-7/HYOR cells [1]; plasmocin 25 μg/ml, 3 days", "value": "restores"}, {"measurement": "Active (phosphorylated) metabolites of gemcitabine in M. hyorhinis infected MCF-7 cells", "setting": "MCF-7/HYOR cell cultures", "value": "no active metabolite can be detected"}, {"measurement": "IC50", "setting": "MCF-7 cells [2]; MCF7, 96 h, no TPi, 4 days, read-out: IC50 MCF-7 As such", "value": "7.3 ± 3.6", "unit": "nM"}, {"measurement": "IC50", "setting": "MCF-7 cells [2]; MCF7, with 10 μM TPi, read-out: IC50 MCF-7 +TPi (10 μM)", "value": "6.3 ± 2.2", "unit": "nM"}, {"measurement": "Ratio (1)/(2) MCF-7", "setting": "MCF-7 cells [2]; [6]", "value": 1.2}, {"measurement": "Higher concentration needed to cause a similar S-phase arrest than in MCF-7", "setting": "MCF-7/HYOR cells [3]", "value": 25, "unit": "fold"}, {"measurement": "Reduction in the cytostatic activity upon M. hyorhinis infection", "setting": "MDA-MB-231 cells", "value": 40, "unit": "fold"}, {"measurement": "Activation (phosphorylation) of gemcitabine in MCF-7 cells", "setting": "MCF-7 cells [4]", "value": "readily activated"}, {"measurement": "Concentration causing cell cycle arrest in the S-phase", "setting": "MCF-7 cells [5]", "value": 0.2, "unit": "µM"}, {"measurement": "Reduction in the cytostatic activity upon M. hyorhinis infection", "setting": "OST.TK^− cells", "value": 70, "unit": "fold"}]}
